Results taken from patent US20060079677A1, “Novel tricyclic azepine derivatives, method for production thereof and pharmaceutical compositions comprising the same” (priority 2003, published 2006).
pIC50: −log10 of the molar value.

Columns and labels:
[1] = system: KB-A1 resistant line (multi-drug resistance induced using adriamycin); test: In vitro cytotoxicity, Microculture Tetrazolium Assay; format: cell-based, human
Method: (§1) Five cell lines were used: • 1 murine leukaemia, L1210, • 1 non-small-cell human lung carcinoma, A549, • 1 human epidermoid carcinoma, KB-3-1, and the corresponding resistant line, KB-A1, whose multi-drug resistance was induced using adriamycin (ADR), • 1 human colon carcinoma, HT29.
(§2) The cells are cultured in RPMI 1640 complete culture medium comprising 10% foetal calf serum, 2 mM glutamine, 50 units/ml of penicillin, 50 μg/ml of streptomycin and 10 mM Hepes, pH 7.4. The cells are distributed on microplates and are exposed to the cytotoxic compounds. The cells are then incubated for 2 days (L1210) or 4 days (A549, KB-A1, KB-3-1, HT29). The number of viable cells is then quantified by a colorimetric assay, the Microculture Tetrazolium Assay (Cancer Res. 1987, 47, 936-942).
(§3) The results are expressed as IC50, the concentration of cytotoxic agent that inhibits the proliferation of the treated cells by 50%.

[2] = system: L1210 cells; test: Action on the cell cycle; format: cell-based, murine; conditions: 25 nM, after 21 hours (untreated cells: 20%)
Method: L1210 cells are incubated for 21 hours at 37° C. in the presence of various concentrations of test compounds. The cells are then fixed using 70% ethanol (v/v), washed twice in PBS and incubated for 30 minutes at 20° C. in PBS that contains 100 μg/ml of RNAse and 50 μg/ml of propidium iodide. The results are expressed as a percentage of the cells that have accumulated in the G2+M phases after 21 hours compared with the control.

[3] = system: KB-3-1 human epidermoid carcinoma; test: In vitro cytotoxicity, Microculture Tetrazolium Assay; format: cell-based; conditions: 96 h, KB-3-1, incubated 4 days, inhibition of proliferation by 50%
Method: as §1, §2, §3

[4] = system: L1210 murine leukaemia; test: as above; format: cell-based; conditions: Mus musculus, 48 h; L1210, incubated 2 days, inhibition of proliferation by 50%
Method: as §1, §2, §3

[5] = system: A549 non-small-cell human lung carcinoma; test: as above; format: cell-based; conditions: 96 h, A549, incubated 4 days, inhibition of proliferation by 50%
Method: as §1, §2, §3

[6] = system: HT29 human colon carcinoma; test: as above; format: cell-based; conditions: HT-29, 96 h, HT29, incubated 4 days, inhibition of proliferation by 50%
Method: as §1, §2, §3

In the case of `COc1ccc(CCN2C=CC=C3C2=Nc2ccccc2OS3(=O)=O)cc1` [Example 42, 1-[2-(4-Methoxyphenyl)ethyl]-1H-pyrido[3,2-c][1,2,5]benzoxathiazepine 5,5-dioxide], the pIC50 ([1]; Homo sapiens, 96 h, KB-A1, incubated 4 days, inhibition of proliferation by 50%) was 7.88, the “recognition by P-glycoprotein (resistant line KB-A1 versus sensitive line KB-3-1)” value ([1]; KB-A1 as sensitive as KB-3-1) was “not recognised by P-glycoprotein” and the “percentage of the cells accumulated in the G2+M phases” value [2] was 80-90%. It also gave a pIC50 [3] of 7.81, a pIC50 [4] of 8.09 and a pIC50 [5] of 7.95. The pIC50 [6] was 8.01.
